Assay results taken from ChEMBL document CHEMBL3227969, “Synthesis and biological activity of 8-oxadihydropteridines” (J Med Chem, 1979).

Columns and labels:
Dihydrofolate reductase = target: T1, Dihydrofolate reductase (Homo sapiens, UniProt P00374); assay: Inhibition of dihydrofolate reductase (unknown origin) using dihydrofolic acid as substrate by spectrophotometry
T1 sequence (P00374 whole entry): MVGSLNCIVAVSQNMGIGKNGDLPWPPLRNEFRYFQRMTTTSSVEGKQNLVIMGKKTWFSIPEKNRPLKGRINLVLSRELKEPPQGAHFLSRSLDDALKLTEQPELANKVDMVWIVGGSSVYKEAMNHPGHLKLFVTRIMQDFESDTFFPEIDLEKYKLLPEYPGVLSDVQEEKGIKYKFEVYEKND

Enterococcus faecalis [1] = assay: Antibacterial activity against Streptococcus faecalis ATCC 8043; assay type: organism-based
Enterococcus faecalis [2] = assay: Antibacterial activity against Streptococcus faecalis ATCC 8043 at 1 ug/ml; assay type: organism-based

IC50 (Dihydrofolate reductase) [µM]	Compound	Activity (Enterococcus faecalis [1])	Activity (Enterococcus faecalis [2])
168	Nc1nc(N)c2c(n1)OCC(c1ccccc1)=N2	Toxic	–
–	Nc1nc(O)c2c(n1)OCC(CCc1ccccc1)=N2	Toxic	–
377	CC1=Nc2c(O)nc(N)nc2OC1C (configuration not stated)	Toxic	–
–	CC1Oc2nc(N)nc(O)c2N=C1c1ccccc1 (configuration not stated)	Toxic	–
–	Nc1nc(O)c2c(n1)OCC(Cc1ccccc1)=N2	Toxic	–
–	Nc1nc(O)c2c(n1)OCC(CCCCc1ccccc1)=N2	Toxic	–
903	CC1=Nc2c(N)nc(N)nc2OC1C (configuration not stated)	Toxic	–
–	Nc1nc(O)c2c(n1)OC(c1ccccc1)C(c1ccccc1)=N2 (configuration not stated)	Toxic	–
–	CN(Cc1cnc2nc(N)nc(N)c2n1)c1ccc(C(=O)N[C@@H](CCC(=O)O)C(=O)O)cc1 [METHOTREXATE]	–	Toxic
740	CC1=Nc2c(O)nc(N)nc2OC1c1ccccc1 (configuration not stated)	Toxic	–
57	Nc1nc(O)c2c(n1)OCC(c1ccccc1)=N2	Toxic	–
242	CC1=Nc2c(O)nc(N)nc2OC1	Toxic	–
–	Nc1nc(N)c2c(n1)OC(c1ccccc1)C(c1ccccc1)=N2 (configuration not stated)	Toxic	–
–	Nc1nc(O)c2c(n1)OCC(CCCc1ccccc1)=N2	Toxic	–
11	CCCCCC1=Nc2c(O)nc(N)nc2OC1	Toxic	–
